Patent publication US20130287890A1, “INHIBITOR OF THE PRODUCTION OF ADVANCED GLYCATION END PRODUCTS” (UENO FINE CHEMICALS INDUSTRY, LTD., priority 2012, published 2013)

Key:
[1] = target: T1, human RAGE (Homo sapiens, UniProt Q15109); assay: RAGE agonist activity of reaction samples (37° C., 42 days), NF-κB luciferase assay in C6 glioma cells; type: cell-based, rat
T1 construct: human RAGE plasmid (including full-length human RAGE cDNA); expressed in transfected cells; host or cells: C6 glioma cells carrying pNF-κB-Luc plasmid and human RAGE plasmid
Method: (§1) Amino acid, carbohydrates and a phosphate buffer solution were charged in a 50 mL polypropylene centrifuge tube in each amount shown in Table 10, followed by sealing and stirring, and then the mixture was reacted in an incubator at 37° C. for 42 days. Next, the reactant was filtered through a 0.2 μm filter and the obtained filtrate was used as a sample. Amino acid and carbohydrates used are as follows:
(§2) Using Luciferase Assay System (manufactured by Promega Corporation), evaluation of RAGE agonist activity was performed. (Day 1) According to the methods disclosed in Diabetes, 2006, vol. 55, pp. 2510-2522, C6 glioma cells into which pNF-κB-Luc plasmid (manufactured by Stratagene Corporation) and human RAGE plasmid (including full-length human RAGE cDNA) have been introduced were seeded at 100 μL/well into a 96-well plate and cultured in a CO2 incubator until the cells were confluent. For the culture, 10% FBS/DMEM medium was used. (Day 2) The medium was removed, and after wells were washed with 300 μL of serum-free DMEM medium, 100 μL of 0.1% FBS/DMEM medium was slowly added. Then, the medium was incubated overnight in a CO2 incubator. (Day 3) The sample was diluted using the medium, and 50 μL of the diluted sample was added to each well. AGE-BSA in which AGE was formed with glyceraldehydes (50 μg/mL) was added to a control well. After incubation in a CO2 incubator for 4 hours, the medium was removed and wells were washed 2 times with 300 μL of PBS (−). Then, 25 μL of 1× lysis buffer was added on ice. After the plate was shaken for 15 seconds, 20 μL of lysate was charged in a new white plate. Further 100 μL of a luciferase assay reagent was added, and a […] was measured by a luminometer. Using 5 μl of lysate, quantitative determination of protein was also performed.
(§3) Biological proteins, carbohydrates and a phosphate buffer solution are charged in a 50 mL polypropylene centrifuge tube in each amount shown in Table 12, followed by sealing and stirring, and then the mixture was reacted in an incubator at 37° C. for 42 days. Next, the reactant was fractionated by centrifugation at 3,000 rpm for 3 hours using an ultrafiltration unit (VIVA SPIN 20, manufactured by Sartorius Corporation). The obtained low molecular weight fraction was used as a sample for determination of 3-DG, while the obtained high molecular weight fraction was used as a sample for the determination of fluorescent AGEs, pentosidine, CML, RAGE agonist activity and RAGE antagonist activity. Biological proteins and carbohydrates used are as follows:
(§4) In the same manner as in Test Example 4, except that the low molecular weight fraction prepared as mentioned above was used as a sample, quantitative determination of 3-DG was performed. In the same manner as in Test Example 4, except that the high molecular weight fraction was filtered through a 0.2 μm filter and the filtrate was used as a sample, fluorescent AGEs, pentosidine, CML, RAGE agonist activity and RAGE antagonist activity were evaluated.
(§5) Collagen, carbohydrates and a phosphate buffer solution were charged in a 50 mL polypropylene centrifuge tube in each amount shown in Table 14, followed by sealing and stirring, and then the mixture was reacted in an incubator at 37° C. for 42 days. Next, the reactant was fractionated by centrifugation at 3,000 rpm for 3 hours using an ultrafiltration unit (VIVA SPIN 20, manufactured by Sartorius Corporation). The obtained low molecular weight fraction was used as a sample for determination of 3-DG. Meanwhile, 0.4 g of a high molecular weight fraction and 8 mL of 6N hydrochloric acid were charged in an ampule and the air in the ampule was replaced with nitrogen, and then hydrolysis was performed at 110° C. for 16 hours in a heat block. After reaction, 8 mL of 5N sodium hydroxide was added, and pH was adjusted using 1N hydrochloric acid and 1N sodium hydroxide to make pH within a range of 7.2 to 7.6. Then, the solution was filtered through a 0.2 μm filter. […]

[2] = target: T1, human RAGE; assay: RAGE antagonist activity of reaction samples (37° C., 42 days) mixed with AGE-BSA, NF-κB luciferase assay in C6 glioma cells; type: cell-based, rat C6 glioma cells expressing human RAGE
Method: as §1
as §2, with “RAGE antagonist” for “RAGE agonist”, “diluted sample,” for “diluted sample was added to each well.”, “μg/mL) as a control, and the mixture of diluted sample and AGE-BSA were” for “μg/mL) was”, “to wells.” for “to a control well.”, “5 μL” for “5 μl”
as §3, §4
as §5, with “7.6.” for “7.6. Then, the solution was filtered through a 0.2 μm filter.”

[3] = Test Example 4, amino acid + carbohydrate, amount of protein 100 μg/mL, relative to control (AGE-BSA) = 1
[4] = Test Example 5, bovine serum albumin + carbohydrate, protein 100 μg/mL, relative to control (AGE-BSA) = 1
[5] = Test Example 5, human serum albumin + carbohydrate, protein 100 μg/mL, relative to control (AGE-BSA) = 1
[6] = Test Example 5, γ-globulin + carbohydrate, protein 10 μg/mL, relative to control (AGE-BSA) = 1
[7] = Test Example 6, collagen + carbohydrate, protein 10 μg/mL, relative to control (AGE-BSA) = 1
[8] = Test Example 4, amino acid + carbohydrate, mixture of sample and AGE-BSA, amount of protein 100 μg/mL, relative to control (AGE-BSA) = 1
[9] = Test Example 5, bovine serum albumin + carbohydrate, mixture of sample and AGE-BSA, protein 100 μg/mL, relative to control (AGE-BSA) = 1
[10] = Test Example 5, human serum albumin + carbohydrate, mixture of sample and AGE-BSA, protein 100 μg/mL, relative to control (AGE-BSA) = 1
[11] = Test Example 5, γ-globulin + carbohydrate, mixture of sample and AGE-BSA, protein 10 μg/mL, relative to control (AGE-BSA) = 1
[12] = Test Example 6, collagen + carbohydrate, mixture of sample and AGE-BSA, protein 10 μg/mL, relative to control (AGE-BSA) = 1
[13] = Test Example 4, amino acid, compared with the test section 2 containing fructose
[14] = Test Example 5, bovine serum albumin, human serum albumin, γ-globulin, compared with sections containing glucose
[15] = Test Example 6, collagen, compared with sections containing glucose and fructose

T1 sequence (Q15109 23-404): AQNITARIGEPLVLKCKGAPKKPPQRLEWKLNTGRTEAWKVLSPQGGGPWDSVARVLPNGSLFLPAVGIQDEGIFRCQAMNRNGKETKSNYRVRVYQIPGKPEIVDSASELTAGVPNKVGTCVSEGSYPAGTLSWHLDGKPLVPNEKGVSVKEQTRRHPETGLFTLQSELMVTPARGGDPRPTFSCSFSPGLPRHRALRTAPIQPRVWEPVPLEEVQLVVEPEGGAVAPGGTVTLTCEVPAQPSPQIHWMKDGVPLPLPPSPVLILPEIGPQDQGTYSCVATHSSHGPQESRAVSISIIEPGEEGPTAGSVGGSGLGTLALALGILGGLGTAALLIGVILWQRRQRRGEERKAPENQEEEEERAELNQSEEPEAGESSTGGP

O=C(CO)[C@@H](O)[C@H](O)[C@H](O)CO [Fructose]
RAGE agonist activity [1, 3]: 0.08
RAGE agonist activity [1, 4]: 0.33
RAGE agonist activity [1, 5]: 0.02
RAGE agonist activity [1, 6]: 0.04
RAGE agonist activity [1, 7]: 0.58
RAGE antagonist activity [2, 8]: 0.70
RAGE antagonist activity [2, 9]: 1.15
RAGE antagonist activity [2, 10]: 1.33
RAGE antagonist activity [2, 11]: 1.08
RAGE antagonist activity [2, 12]: 2.49

O=C[C@H](O)[C@@H](O)[C@H](O)[C@H](O)CO [Glucose]
RAGE agonist activity [1, 3]: 0.06
RAGE agonist activity [1, 4]: 0.37
RAGE agonist activity [1, 5]: 0.01
RAGE agonist activity [1, 6]: 0.06
RAGE agonist activity [1, 7]: 0.45
RAGE antagonist activity [2, 8]: 0.56
RAGE antagonist activity [2, 9]: 1.08
RAGE antagonist activity [2, 10]: 1.20
RAGE antagonist activity [2, 11]: 1.07
RAGE antagonist activity [2, 12]: 2.85

OC[C@@H](O)[C@@H](O)[C@H](O)[C@@H](O)CO [Sorbitol]
RAGE agonist activity [1, 3]: 0.07
RAGE agonist activity [1, 13]: decreased
RAGE agonist activity [1, 4]: 0.24
RAGE agonist activity ([1]; Test Example 5, bovine serum albumin, human serum albumin, γ-globulin, compared with sections containing fructose): decreased
RAGE agonist activity [1, 14]: decreased
RAGE agonist activity [1, 5]: 0.02
RAGE agonist activity [1, 6]: 0.06
RAGE agonist activity [1, 7]: 0.27
RAGE agonist activity [1, 15]: decreased
RAGE antagonist activity [2, 8]: 0.66
RAGE antagonist activity [2, 13]: decreased
RAGE antagonist activity [2, 9]: 1.08
RAGE antagonist activity [2, 14]: decreased
RAGE antagonist activity [2, 10]: 1.01
RAGE antagonist activity ([2]; Test Example 5, test sections 3 and 6 (bovine serum albumin, human serum albumin), compared with sections containing fructose): decreased
RAGE antagonist activity [2, 11]: 0.90
RAGE antagonist activity [2, 12]: 1.22
RAGE antagonist activity [2, 15]: decreased
